{"source": "patent US12414267B2", "about": "“Fluorinated aromatics and methods of using same” (3M INNOVATIVE PROPERTIES COMPANY, priority 2019, dated 2025)", "data": [{"test": "Log Kow (octanol/water partition coefficient) by HPLC, OECD Test Method 117", "assay_type": "physicochemical", "details": "OECD 117", "protocol": "Values of Log Kow (octanol/water partition coefficients) were determined by HPLC using the method described in Organization for Economic Cooperation and Development (OECD) Test Method 117, “Partition Coefficient (n-octanol/water), HPLC Method.”", "values": [{"smiles": "Fc1c(F)c(F)c(OC(=C(C(F)(F)F)C(F)(F)F)C(F)(F)C(F)(F)F)c(F)c1F", "note": "[Example 1, 1,2,3,4,5-Pentafluoro-6-[3,3,3-trifluoro-1-(1,1,2,2,2-pentafluoroethyl)-2-(trifluoromethyl)prop-1-enoxy]benzene]", "Log Kow": 6.1}, {"smiles": "F/C(Oc1c(F)c(F)c(F)c(F)c1F)=C(/F)C(F)(F)F", "note": "[Example 2, (E)-1,2,3,4,5-Pentafluoro-6-((perfluoroprop-1-en-1-yl)oxy)benzene]", "Log Kow": 4.7}, {"smiles": "F/C(=C(/C(F)(F)F)C(F)(Oc1c(F)c(F)c(F)c(F)c1F)C(F)(F)C(F)(F)F)C(F)(C(F)(F)F)C(F)(F)F", "note": "(stereo not drawn) [Example 3, (E)-1,2,3,4,5-Pentafluoro-6-((1,1,1,2,2,3,5,6,7,7,7-undecafluoro-4,6-bis(trifluoromethyl)hept-4-en-3-yl)oxy)benzene]", "Log Kow": ">6.4"}, {"smiles": "F/C(=C(/C(F)(F)F)C(F)(Oc1ccccc1)C(F)(F)C(F)(F)F)C(F)(C(F)(F)F)C(F)(F)F", "note": "(stereo not drawn) [Example 4, (E)-((1,1,1,2,2,3,5,6,7,7,7-Undecafluoro-4,6-bis(trifluoromethyl)hept-4-en-3-yl)oxy)benzene+isomers]", "Log Kow": ">6.4"}, {"smiles": "FC(F)(F)C(=C(Oc1ccccc1)C(F)(F)C(F)(F)F)C(F)(F)F", "note": "[Example 5, ((1,1,1,4,4,5,5,5-Octafluoro-2-(trifluoromethyl)pent-2-en-3-yl)oxy)benzene]", "Log Kow": 5.5}, {"smiles": "FC(F)(F)C(=C(Oc1cccc(C(F)(F)F)c1)C(F)(F)C(F)(F)F)C(F)(F)F", "note": "[Example 7, 1-((1,1,1,4,4,5,5,5-Octafluoro-2-(trifluoromethyl)pent-2-en-3-yl)oxy)-3-(trifluoromethyl)benzene]", "Log Kow": 6.1}]}]}
